Data set [1] concerns UACC257 human melanoma cell line. Briefly: Cell viability of UACC257 cells. It counts as cell-based. The conditions noted are these: different doses, FIG. 10E. Here is the method:
(§1) Cell viability assay: Human melanoma cell lines and isolated primary cultured human melanocytes were propagated and tested in early passage (Passages 7 to 9). The effects of NNT inhibitors (2,3BD, DCC, and Palmitoyl coenzyme A lithium salt) on cell viability were evaluated by the CellTiter-Glo Luminescent Cell Viability Assay (Promega, #G7570) and measurement of luminescence was performed on an EnVision 2104 Multilabel Reader (PerkinElmer). Human melanoma cell lines and primary melanocytes were plated on 96-well white plates (10,000 cells/well) and were treated with the NNT inhibitors at the indicated concentrations for 24 h.

Another data set has as its system primary melanocytes. Briefly: Cell viability of primary melanocytes, different doses. It counts as cell-based, human. The conditions noted are these: different doses, relative to vehicle, FIG. 10C. On the procedure: as §1
The next data set relates to murine Melan-A cells. Briefly: Melanin content of Melan-A cells with NNT inhibitors. It counts as cell-based, mouse. The conditions noted are these: 2 mM, FIG. 3A. Here is the method:
Murine Melan-A (Bennett et al., 1987) cells were obtained from the Wellcome Trust Functional Genomics Cell Bank. Melan-A cells were grown in RPMI 1640 supplemented with 10% FBS or FetalPlex (Gemini Bio-Products, #100-602), 100,000 U/L penicillin, 100 mg/L streptomycin sulphate, 100× Glutamax, and 200 nM TPA.
(§2) In vitro culture with NNT inhibitors: 2,3-Butanedione 97% (2,3 BD) (Sigma Aldrich, #B85307) (1 μM, 10 μM, 100 μM, 2 mM), N,N-Dicyclohexylcarbodiimide (DCC) (Sigma Aldrich, #D80002) (1 mM, 2 mM, 10 mM), and Palmitoyl coenzyme A lithium salt (Sigma Aldrich, #P9716) (10 μM, 2 mM) were reconstituted with DMSO (American Type Culture Collection, 4-X).
(§3) Melanin quantification: Equal numbers of cells were plated in 6-well plates. The cells were then harvested 72-96 hours post siRNA or NNT inhibitors compounds, as indicated in the legends, pelleted, washed in PBS and counted. 10^6 cells were used for measurement of protein concentration with the Pierce BCA protein assay (Thermo Fisher Scientific, #23225) and 10^6 cells were resuspended in 60 μl of 1 N NaOH solution and incubated at 60° C. for 2 h or until the melanin was completely dissolved. After cooling down to room temperature, samples were centrifuged at 500×g for 10 min and the supernatants were loaded onto a 96-well plate. The melanin content was determined by measuring the absorbance at 405 nm on an Envision plate reader, compared with a melanin standard (0 to 50 μg/ml; Sigma Aldrich, #M8631). Melanin content was expressed as micrograms per milligram of protein.

Data set [2] has as its target T1, NNT (Homo sapiens, UniProt Q13423).
T1 sequence (Q13423 44-1086): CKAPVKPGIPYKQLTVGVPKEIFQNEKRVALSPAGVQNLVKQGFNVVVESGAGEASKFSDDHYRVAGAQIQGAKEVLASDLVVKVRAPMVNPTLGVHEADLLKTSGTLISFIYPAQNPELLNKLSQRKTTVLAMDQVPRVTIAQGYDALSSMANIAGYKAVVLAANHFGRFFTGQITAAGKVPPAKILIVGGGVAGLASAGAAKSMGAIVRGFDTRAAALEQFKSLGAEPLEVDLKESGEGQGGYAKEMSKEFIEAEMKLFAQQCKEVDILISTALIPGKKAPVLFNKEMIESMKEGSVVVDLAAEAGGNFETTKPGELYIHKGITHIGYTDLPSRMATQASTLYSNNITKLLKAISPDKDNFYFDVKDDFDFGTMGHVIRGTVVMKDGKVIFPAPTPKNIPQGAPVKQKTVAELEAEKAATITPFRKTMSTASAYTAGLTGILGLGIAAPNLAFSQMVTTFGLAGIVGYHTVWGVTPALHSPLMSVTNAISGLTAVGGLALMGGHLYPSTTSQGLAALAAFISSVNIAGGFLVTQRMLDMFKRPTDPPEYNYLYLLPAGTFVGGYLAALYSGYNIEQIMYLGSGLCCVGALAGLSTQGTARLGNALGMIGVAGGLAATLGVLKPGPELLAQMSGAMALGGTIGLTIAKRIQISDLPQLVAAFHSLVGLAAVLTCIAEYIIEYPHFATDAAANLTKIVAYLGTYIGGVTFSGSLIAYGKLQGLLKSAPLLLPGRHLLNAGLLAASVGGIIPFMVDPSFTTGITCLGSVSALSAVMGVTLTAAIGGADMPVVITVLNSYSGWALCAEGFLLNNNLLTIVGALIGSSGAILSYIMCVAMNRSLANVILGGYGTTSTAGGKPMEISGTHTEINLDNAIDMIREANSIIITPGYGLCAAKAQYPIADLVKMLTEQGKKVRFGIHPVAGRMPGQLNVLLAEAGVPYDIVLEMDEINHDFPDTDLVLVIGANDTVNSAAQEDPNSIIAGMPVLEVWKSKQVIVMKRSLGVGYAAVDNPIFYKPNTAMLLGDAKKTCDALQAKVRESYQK
Briefly: GSH/GSSG ratio in UACC257 melanoma cells. Format: cell-based. Further details: endogenous in cells. The conditions noted are these: different doses. On the procedure: (§4) Glutathione measurements: Cell lysates were prepared from equal numbers of cells after 24 h of DCC or 2,3BD treatment, following the manufacturer's protocols. Seventy-two h post siRNA treatment or overexpression of NNT and their corresponding controls, glutathione levels were determined using the GSH/GSSG-Glo assay (Promega, #V6611) and luminescence was measured using an EnVision 2104 Multilabel Reader (PerkinElmer).

Data set [3] has as its system primary human melanocytes. Briefly: Intracellular melanin content of primary human melanocytes with NNT inhibitors. Format: cell-based. The conditions noted are these: 2.3 BD 2 mM for 72 hours, FIG. 10D.
Text: Primary human melanocytes were isolated from normal discarded foreskins and were established in TIVA medium as described previously (Khaled et al., 2010) or in Medium 254 (Life Technologies, #M254500) (Allouche et al., 2015). Human melanoma cell line UACC257 (sex unspecified) was obtained from the National Cancer Institute (NCI), Frederick Cancer Division of Cancer Treatment and Diagnosis (DCTD) Tumor Cell Line Repository. SK-MEL-30 ([…]) human melanoma cell line was from Memorial Sloan Kettering Cancer Center. Both melanoma cell lines have been authenticated by our lab using ATCC's STR profiling service. UACC257 and SK-MEL-30 cells were cultured in DMEM and RPMI medium (Life Technologies, #11875119) respectively, supplemented with 10% fetal bovine serum and 1% penicillin/streptomycin/L-glutamine in a humidified atmosphere of 95% air and 5% CO2 at 37° C.
as §2, §3

The test system of data set [4] is human melanocytes, dermal fibroblasts, and keratinocytes. As to the kind of experiment: Cell viability of human skin cells with NNT inhibitors. Format: cell-based. The conditions noted are these: up to 10 μM, FIG. 10B. On the procedure: Primary human keratinocytes were cultured in EpiLife® medium supplemented with human keratinocyte growth supplement (HKGS, ThermoFisher Scientific). Primary human fibroblasts were cultured in medium 106 supplemented with low serum growth supplement (LSGS, ThermoFisher Scientific). 10^6 and […] cells were plated per well of 6-well and 96-well plates, respectively. Drugs indicated in the figure legends were dissolved in DMSO and added 1:1000 to the culture media for 24 h at the concentrations indicated.
as §1

In another data set the test system is zebrafish melanocytes. Briefly: Chemical treatment of zebrafish, melanocytic brightness. It counts as in vivo. The conditions noted are these: 24 hours, 100 μM 2,3BD or 50 μM DCC. Here is the method:
Wildtype Tübingen zebrafish were placed in a 24 well plate at 72 hours post-fertilization, with 10 larvae per well for a total twenty larvae per condition. Larvae were treated for 24 hours with either 2,3BD (1 μM, 10 μM, 100 μM, 1 mM; Sigma Aldrich, #B85307), DCC (1 μM, 10 μM, 50 μM, 100 μM; Sigma Aldrich, #D80002), or DMSO (1:500) in E3 embryo medium. At 4 days post fertilization, larvae were imaged using a Nikon SMZ18 Stereomicroscope. Melanocytes from at least 5 zebrafish embryos of each group for each experiment were analyzed using the FIJI software enabling pixel-based color quantification.

Data set [5] concerns the target T1, NNT. As to the kind of experiment: GSH/GSSG ratio (indirect endpoint of NNT enzyme activity) in primary melanocytes. Format: cell-based. Set-up: endogenous in cells; host or cells: primary human melanocytes (isolated from neonatal foreskins). The conditions noted are these: different doses, 24 hours. On the procedure: as §4

Turning to `C(=NC1CCCCC1)=NC1CCCCC1` [DCC, N,N′-Dicyclohexylcarbodiimide], the cell viability result was “no impact on cell viability” in data set [1] and “no impacts on cell viability” in the data set on primary melanocytes. For the same molecule, in the data set with murine Melan-A cells, the melanin content entry is listed as “increased melanin content”. Moreover, the GSH/GSSG ratio entry at NNT [2] and on NNT [5] was “decreased GSH/GSSG ratios” throughout. Also, the intracellular melanin content result in data set [3] is “significantly increased the melanin content”. The “toxicity (viability)” value in data set [4] was “no significant toxicity”. In the data set on zebrafish melanocytes, the “darkening of zebrafish embryos (melanocytic brightness)” value is recorded as “significant darkening”.

For the origin of these results see patent US20240307283A1, “COMPOSITIONS AND METHODS FOR DECREASING PIGMENTATION” (The General Hospital Corporation, priority 2021, published 2024).
